Our source for the EC30 values is patent US10758534B2 (Vertex Pharmaceuticals Incorporated, priority 2014, dated 2020).

Structures are written as SMILES.

The target in the assay is T1, F508del (Homo sapiens, UniProt P13569, DEL508-508).
T1 construct: expressed in transfected cells
T1 sequence (P13569 with tags, fused parts or gaps DEL508-508): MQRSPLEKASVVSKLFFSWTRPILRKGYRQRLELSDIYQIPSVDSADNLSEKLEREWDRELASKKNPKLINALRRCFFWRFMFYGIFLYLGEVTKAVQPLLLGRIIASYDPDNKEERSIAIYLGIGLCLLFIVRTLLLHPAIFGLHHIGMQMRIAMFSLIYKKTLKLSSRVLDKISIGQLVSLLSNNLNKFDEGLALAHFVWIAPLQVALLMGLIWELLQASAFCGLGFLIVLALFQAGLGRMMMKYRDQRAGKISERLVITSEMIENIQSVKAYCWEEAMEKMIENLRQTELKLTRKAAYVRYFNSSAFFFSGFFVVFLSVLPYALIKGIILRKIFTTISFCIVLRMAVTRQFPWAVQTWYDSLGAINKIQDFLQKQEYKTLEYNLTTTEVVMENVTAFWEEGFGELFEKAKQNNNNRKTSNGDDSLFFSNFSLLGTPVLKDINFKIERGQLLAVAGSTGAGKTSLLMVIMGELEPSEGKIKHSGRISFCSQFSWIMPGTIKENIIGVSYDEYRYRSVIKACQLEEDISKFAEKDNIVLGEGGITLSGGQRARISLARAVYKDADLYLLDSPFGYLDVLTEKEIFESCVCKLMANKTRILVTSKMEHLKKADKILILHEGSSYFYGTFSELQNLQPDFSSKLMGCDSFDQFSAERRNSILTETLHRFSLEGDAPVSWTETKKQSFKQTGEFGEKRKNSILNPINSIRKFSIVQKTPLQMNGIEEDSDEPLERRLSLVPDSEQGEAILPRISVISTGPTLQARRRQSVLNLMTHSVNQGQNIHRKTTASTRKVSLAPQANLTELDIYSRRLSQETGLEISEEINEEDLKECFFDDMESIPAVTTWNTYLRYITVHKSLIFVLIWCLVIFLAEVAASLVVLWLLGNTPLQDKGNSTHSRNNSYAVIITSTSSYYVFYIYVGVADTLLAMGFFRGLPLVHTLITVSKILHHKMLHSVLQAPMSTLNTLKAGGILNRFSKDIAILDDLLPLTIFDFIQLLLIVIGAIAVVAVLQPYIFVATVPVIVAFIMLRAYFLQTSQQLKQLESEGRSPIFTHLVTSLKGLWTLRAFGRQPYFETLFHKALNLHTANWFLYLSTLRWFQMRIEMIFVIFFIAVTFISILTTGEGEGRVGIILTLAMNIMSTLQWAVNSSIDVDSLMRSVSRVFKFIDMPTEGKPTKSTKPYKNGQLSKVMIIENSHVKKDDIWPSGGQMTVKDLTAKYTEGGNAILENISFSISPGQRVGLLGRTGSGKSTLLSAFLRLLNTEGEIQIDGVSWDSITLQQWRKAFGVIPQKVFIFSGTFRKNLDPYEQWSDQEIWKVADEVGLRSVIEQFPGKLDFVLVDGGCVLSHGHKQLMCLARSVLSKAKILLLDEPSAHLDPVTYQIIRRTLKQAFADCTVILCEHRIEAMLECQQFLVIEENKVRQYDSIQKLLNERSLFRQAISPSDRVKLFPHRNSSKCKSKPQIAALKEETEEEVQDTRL
The assay can be described thus: Protocol 1: membrane potential optical assay (FLIPR III, voltage sensing dye), identification of potentiator compounds. The format is cell-based. The note with it: Table 3, compounds of Table 1. In short, it runs like this:
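Mouse NIH 3T3 fibroblasts stably expressing F508del, temperature-corrected at 27 °C for 24 h, pretreated with compound, then loaded with voltage-sensing redistribution dye. Forskolin was added in a single step with a chloride gradient (chloride-free gluconate bath; Bath Solution #1 HEPES pH 7.4). Membrane-potential fluorescence read on FLIPR III.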
Regarding `C[C@@H]1CN(c2nc(C3=COCCC3)ccc2C(=O)NS(=O)(=O)c2cccc(N)n2)C(C)(C)C1` [Compound 1524, N-[(6-amino-2-pyridyl)sulfonyl]-6-(3,4-dihydro-2H-pyran-5-yl)-2-[(4S)-2,2,4-trimethylpyrrolidin-1-yl]pyridine-3-carboxamide], the EC30 entry was “+++ (“+++” means <3 uM)”. For `CC(C)Oc1ccc(-c2nc(N3C[C@@H](C)CC3(C)C)ccc2C(=O)NS(=O)(=O)c2cccc(N)n2)cn1` [Compound 1436, N-[(6-amino-2-pyridyl)sulfonyl]-2-(6-isopropoxy-3-pyridyl)-6-[(4S)-2,2,4-trimethylpyrrolidin-1-yl]pyridine-3-carboxamide] the value was “++ (“++” means between 3 uM and 10 uM)”. In the case of `CC(C)COc1cc(F)cc(-c2ccc(C(=O)NS(=O)(=O)N3CCC(S(C)(=O)=O)C3)c(N3C[C@@H](C)CC3(C)C)n2)c1` (stereo partly drawn) [Compound 1560, 6-(3-fluoro-5-isobutoxy-phenyl)-N-(3-methylsulfonylpyrrolidin-1-yl)sulfonyl-2-[(4S)-2,2,4-trimethylpyrrolidin-1-yl]pyridine-3-carboxamide], the EC30 entry was “+++ (“+++” means <3 uM)”. For the compound `CNC1CCN(S(=O)(=O)NC(=O)c2ccc(-c3cc(F)cc(OCC(C)C)c3)nc2N2CC(C)CC2(C)C)C1` (stereo not drawn) [Compound 1554, 6-(3-fluoro-5-isobutoxy-phenyl)-N—[3-(methylamino)pyrrolidin-1-yl]sulfonyl-2-(2,2,4-trimethylpyrrolidin-1-yl)pyridine-3-carboxamide], the EC30 result is on record as “+++ (“+++” means <3 uM)”. For `CC(C)(C)c1cc(C(=O)NS(=O)(=O)c2cccc(N)c2)n(Cc2cccc3cc[nH]c23)n1` [Compound 1256, N-(3-aminophenyl)sulfonyl-5-tert-butyl-2-(1H-indol-7-ylmethyl)pyrazole-3-carboxamide] the value was “++ (“++” means between 3 uM and 10 uM)”; for `C[C@@H]1CN(c2nc(-c3cnc4[nH]ccc4c3)ccc2C(=O)NS(=O)(=O)c2cccnc2N)C(C)(C)C1` [Compound 1714, N-[(2-amino-3-pyridyl)sulfonyl]-6-(1H-pyrrolo[2,3-b]pyridin-5-yl)-2-[(4S)-2,2,4-trimethylpyrrolidin-1-yl]pyridine-3-carboxamide], “++ (“++” means between 3 uM and 10 uM)”.

With `CC1CN(c2ncccc2C(=O)NS(=O)(=O)c2cccc(Oc3ccccc3C#N)n2)C(C)(C)C1` (stereo not drawn) [Compound 1720, N—[[6-(2-cyanophenoxy)-2-pyridyl]sulfonyl]-2-(2,2,4-trimethylpyrrolidin-1-yl)pyridine-3-carboxamide], the EC30 result was “+++ (“+++” means <3 uM)”. As for `CC(C)COc1cc(F)cc(-c2ccc(C(=O)NS(=O)(=O)c3cccc(N)n3)c(N3CCC[C@H]3c3ccccc3)n2)c1` [Compound 1260, N-[(6-amino-2-pyridyl)sulfonyl]-6-(3-fluoro-5-isobutoxy-phenyl)-2-[(2S)-2-phenylpyrrolidin-1-yl]pyridine-3-carboxamide], the EC30 entry was “+++ (“+++” means <3 uM)”. With `CC(C)COc1cc(F)cc(-c2ccc(C(=O)NS(=O)(=O)c3cccc(N)n3)c(OC3CCCC3)n2)c1` [Compound 1451, N-[(6-amino-2-pyridyl)sulfonyl]-2-(cyclopentoxy)-6-(3-fluoro-5-isobutoxy-phenyl)pyridine-3-carboxamide], the EC30 result is “+++ (“+++” means <3 uM)”. The value for `Cc1cc(C)c(Oc2nc(-c3ccnn3C(C)C)ccc2C(=O)NS(=O)(=O)c2cccc(N)n2)c(C)c1` [Compound 1317, N-[(6-amino-2-pyridyl)sulfonyl]-6-(2-isopropylpyrazol-3-yl)-2-(2,4,6-trimethylphenoxy)pyridine-3-carboxamide] was “+++ (“+++” means <3 uM)”; that for `CCOc1ccccc1-c1ccc(C(=O)NS(=O)(=O)c2ccc[nH]c2=O)c(N2C[C@@H](C)CC2(C)C)n1` [Compound 1848, 6-(2-ethoxyphenyl)-N-[(2-oxo-1H-pyridin-3-yl)sulfonyl]-2-[(4S)-2,2,4-trimethylpyrrolidin-1-yl]pyridine-3-carboxamide] was “+++ (“+++” means <3 uM)”. For `CC(C)COc1cc(F)cc(-c2nc(N3C[C@@H](C)CC3(C)C)c(C(=O)NS(=O)(=O)c3cccc(N)n3)cc2Cl)c1` [Compound 1641, N-[(6-amino-2-pyridyl)sulfonyl]-5-chloro-6-(3-fluoro-5-isobutoxy-phenyl)-2-[(4S)-2,2,4-trimethylpyrrolidin-1-yl]pyridine-3-carboxamide] the value was “+++ (“+++” means <3 uM)”. The value for `COc1ncccc1S(=O)(=O)NC(=O)C1Cc2ccccc2CCN1Cc1c(C)cc(C)cc1C` (stereo not drawn) [Compound 876, N-[(2-methoxy-3-pyridyl)sulfonyl]-3-[(2,4,6-trimethylphenyl)methyl]-1,2,4,5-tetrahydro-3-benzazepine-4-carboxamide] was “+++ (“+++” means <3 uM)”. With `CC(=O)c1cccc(Nc2cccc(S(=O)(=O)NC(=O)c3cccnc3N3CC(C)CC3(C)C)n2)c1` (stereo not drawn) [Compound 1949, N—[[6-(3-acetylanilino)-2-pyridyl]sulfonyl]-2-(2,2,4-trimethylpyrrolidin-1-yl)pyridine-3-carboxamide], the EC30 result was “+++ (“+++” means <3 uM)”. The value for `CC(C)COc1cc(F)cc(-c2ccc(C(=O)NS(=O)(=O)c3cccc(N)n3)c(OCCCc3ccccn3)n2)c1` [Compound 1693, N-[(6-amino-2-pyridyl)sulfonyl]-6-(3-fluoro-5-isobutoxy-phenyl)-2-[3-(2-pyridyl)propoxy]pyridine-3-carboxamide] was “+++ (“+++” means <3 uM)”; that for `CC[C@@H]1CN(c2nc(-c3cc(F)cc(OCC(C)C)c3)ccc2C(=O)NS(=O)(=O)c2cccc(N)n2)C(C)(C)C1` [Compound 1612, N-[(6-amino-2-pyridyl)sulfonyl]-2-[(4S)-4-ethyl-2,2-dimethyl-pyrrolidin-1-yl]-6-(3-fluoro-5-isobutoxy-phenyl)pyridine-3-carboxamide] was “+++ (“+++” means <3 uM)”.

Take `CC(C)COc1cc(F)cc(-c2ccc(C(=O)NS(=O)(=O)c3cccc(N)n3)c(OCCC3CCCCO3)n2)c1` (stereo not drawn) [Compound 1680, N-[(6-amino-2-pyridyl)sulfonyl]-6-(3-fluoro-5-isobutoxy-phenyl)-2-(2-tetrahydropyran-2-ylethoxy)pyridine-3-carboxamide]: the EC30 entry is “+++ (“+++” means <3 uM)”. The value for `CC(C)(C)COc1cccc(-c2ccc(C(=O)NS(=O)(=O)c3cccc(N)n3)c(N3CCCC3(C)C)n2)n1` [Compound 1328, N-[(6-amino-2-pyridyl)sulfonyl]-6-[6-(2,2-dimethylpropoxy)-2-pyridyl]-2-(2,2-dimethylpyrrolidin-1-yl)pyridine-3-carboxamide] was “+++ (“+++” means <3 uM)”; that for `Cc1cc(C(=O)NS(=O)(=O)c2cccc(N)n2)c(N2CC(C)CC2(C)C)nc1-c1ccc(OC(C)C)nc1` (stereo not drawn) [Compound 995, N-[(6-amino-2-pyridyl)sulfonyl]-6-(6-isopropoxy-3-pyridyl)-5-methyl-2-(2,2,4-trimethylpyrrolidin-1-yl)pyridine-3-carboxamide] was “+++ (“+++” means <3 uM)”. The value for `CC(C)COc1cc(F)cc(-c2ccc(C(=O)NS(=O)(=O)c3cccc4[nH]ccc34)c(N3CCC(C)(C)CC3)n2)c1` [Compound 1323, 2-(4,4-dimethyl-1-piperidyl)-6-(3-fluoro-5-isobutoxy-phenyl)-N-(1H-indol-4-ylsulfonyl)pyridine-3-carboxamide] was “+ (“+” means greater than 10 uM)”; that for `CC(C)Oc1ccc(-c2ccc(C(=O)NS(=O)(=O)c3cccc(N)n3)c(N3CCC[C@H]3C)n2)cn1` [Compound 1354, N-[(6-amino-2-pyridyl)sulfonyl]-6-(6-isopropoxy-3-pyridyl)-2-[(2R)-2-methylpyrrolidin-1-yl]pyridine-3-carboxamide] was “+++ (“+++” means <3 uM)”; that for `CC(C)COc1cc(F)cc(-c2ccc(C(=O)NS(=O)(=O)N3CC4CC4(N)C3)c(N3C[C@@H](C)CC3(C)C)n2)c1` (stereo partly drawn) [Compound 1521, N-[(5-amino-3-azabicyclo[3.1.0]hexan-3-yl)sulfonyl]-6-(3-fluoro-5-isobutoxy-phenyl)-2-[(4S)-2,2,4-trimethylpyrrolidin-1-yl]pyridine-3-carboxamide] was “+++ (“+++” means <3 uM)”. The value for `CCOc1ccc(-c2ccc(C(=O)NS(=O)(=O)c3ccc[nH]c3=O)c(Oc3c(C)cc(C)cc3C)n2)cn1` [Compound 932, 6-(6-ethoxy-3-pyridyl)-N-[(2-oxo-1H-pyridin-3-yl)sulfonyl]-2-(2,4,6-trimethylphenoxy)pyridine-3-carboxamide] was “+ (“+” means greater than 10 uM)”; that for `Cc1ccc(Oc2nc(-c3cc(F)cc(OC(C)C)c3)ccc2C(=O)NS(=O)(=O)c2cccc(N)n2)c(C)c1` [Compound 1150, N-[(6-amino-2-pyridyl)sulfonyl]-2-(2,4-dimethylphenoxy)-6-(3-fluoro-5-isopropoxy-phenyl)pyridine-3-carboxamide] was “+++ (“+++” means <3 uM)”; that for `Cc1cc(C)c(Oc2nc(C(C)(C)C)ccc2C(=O)NS(=O)(=O)c2csc(N)n2)c(C)c1` [Compound 1294, N-(2-aminothiazol-4-yl)sulfonyl-6-tert-butyl-2-(2,4,6-trimethylphenoxy)pyridine-3-carboxamide] was “+++ (“+++” means <3 uM)”. As to `CC(C)COc1cc(F)cc(-c2ccc(C(=O)NS(=O)(=O)c3cccc(N)n3)c(N3CC(C)CC3(C)C)c2F)c1` (stereo not drawn) [Compound 1497, N-[(6-amino-2-pyridyl)sulfonyl]-3-fluoro-4-(3-fluoro-5-isobutoxy-phenyl)-2-(2,2,4-trimethylpyrrolidin-1-yl)benzamide], the EC30 entry is “+++ (“+++” means <3 uM)”.

On to `COc1cccc(S(=O)(=O)NC(=O)c2ccc(-c3cc(F)cc(OCC(C)C)c3)nc2N2CCC(C)(C)CC2)n1` [Compound 1090, 2-(4,4-dimethyl-1-piperidyl)-6-(3-fluoro-5-isobutoxy-phenyl)-N-[(6-methoxy-2-pyridyl)sulfonyl]pyridine-3-carboxamide], for which the EC30 entry is on record as “+++ (“+++” means <3 uM)”.
